Measurements: article PMC6155387, “Alkoxy and Enediyne Derivatives Containing 1,4-Benzoquinone Subunits—Synthesis and Antitumor Activity” (Molecules : A Journal of Synthetic Chemistry and Natural …, 2017)

Key:
Type in all cases: cell-based, human
SNB-19 = assay: antiproliferative activity (WST-1), glioblastoma SNB-19; conditions: for IC50: Homo sapiens, glioblastoma SNB-19, 72 h, WST-1, Neg: negative in the concentration used, read-out: IC50 ± SD SNB-19; for SI (IC50 HFF-1/IC50 cancer line) SNB-19: selectivity index, HFF-1 vs SNB-19
Protocol: (§1) Biological activity of the tested compounds was assessed in vitro using cultured cell lines: melanoma C-32 (ATCC, Rockville, MD, USA), glioblastoma SNB-19 (DSMZ, Braunschweig, Germany), breast cancer MDA-MB-231 (ATCC, Rockville, MD, USA), and normal human fibroblasts derived from foreskin HFF-1 (ATCC, Rockville, MD, USA). Cell cultures were maintained using DMEM (Lonza, Basel, Switzerland) supplemented with 10% fetal bovine serum (FBS) (Biological Industries Cromwell, CT, USA) and a mixture of penicillin (10,000 U/mL) and streptomycin (10 mg/mL) (Lonza, Basel, Switzerland).
(§2) Cells were cultured using 96-well plates (Nunc Thermo Fisher Scientific, Waltham, MA, USA). Cells were seeded (5 × 10^3 cells/well) and incubated for 24 h in a standard incubator (37 °C, 5% CO2, relative humidity 95%). Subsequently, the medium was replaced with a fresh aliquot containing an examined compound (0.01; 0.05; 0.1; 0.5; 1; 5; 10; 50; 100 µg/mL), and cells were further incubated for another 72 h. Upon the conclusion of incubation, a CVDE test (Aniara, West Chester, OH, USA) using crystal violet was performed to assess the relative number of cells in the culture. A WST-1 test (Roche) was performed to examine the metabolic activity of cells and test for the presence of LDH in the medium (Roche Diagnostics GmbH, Mannheim, Germany), allowing for the assessment of the relative number of dead cells (i.e., cytotoxicity of the examined compound). UVM340 microplate readers (BIOGENET, Józefów, Poland) were used to read absorbance values.
(§3) WST-1 colorimetric assay for cell proliferation (Roche Diagnostics GmbH, Mannheim, Germany, reagent kit cat. 11644807001) is based on the viable cells’ ability to cleave the bright red-colored stable tetrazolium salt WST-1 to dark red soluble formazan. This bioreduction occurs under the influence of mitochondrial dehydrogenases (depends mostly on production of NAD(P)H in viable cells). The amount of formazan dye formed correlates directly with the number of metabolically active cells in the culture and is measured by absorbance (λ = 450 nm) following 1 h incubation of cells with the reagent.

MDA-MB-231 = assay: antiproliferative activity (WST-1), breast cancer MDA-MB-231; conditions: for IC50: Homo sapiens, read-out: IC50 ± SD MDA-MB-231; for SI (IC50 HFF-1/IC50 cancer line) MDA-MB-231: selectivity index, HFF-1 vs MDA-MB-231
Protocol: as §1, §2, §3

HFF-1 = assay: antiproliferative activity (WST-1), normal fibroblasts HFF-1; conditions: normal fibroblasts HFF-1, 72 h, Neg: negative in the concentration used; for IC50: Homo sapiens, read-out: IC50 ± SD HFF-1
Protocol: as §1, §2, §3

C-32 = assay: antiproliferative activity (WST-1), melanoma C-32; conditions: for IC50: Homo sapiens, C32, melanoma C-32, 72 h, WST-1, Neg: negative in the concentration used, read-out: IC50 ± SD C-32; for SI (IC50 HFF-1/IC50 cancer line) C-32: selectivity index, HFF-1 vs C-32
Protocol: as §1, §2, §3

[1] = breast cancer MDA-MB-231, 72 h, WST-1, Neg: negative in the concentration used

Compound | IC50 (SNB-19) [µM] | SI (IC50 HFF-1/IC50 cancer line) SNB-19 (SNB-19) | IC50 (MDA-MB-231; [1]) [µM] | SI (IC50 HFF-1/IC50 cancer line) MDA-MB-231 (MDA-MB-231) | IC50 (HFF-1) [µM] | IC50 (C-32) [µM] | SI (IC50 HFF-1/IC50 cancer line) C-32 (C-32) | IC50 ± SD MDA-MB-231 (MDA-MB-231; [1]) | IC50 ± SD HFF-1 (HFF-1) | times more activity against the C-32 cell compared to cisplatin (C-32; C-32, ratio of IC50 vs cisplatin) [times] | times more activity against the C-32 cell compared to (Z)-4-octen-2,6-diyn-1,8-diol (22) (C-32; C-32, ratio of IC50 vs compound 22) [times]
O=C1C(Cl)=C(Cl)C(=O)c2ccccc21 [Compound 1, 2,3-Dichloro-1,4-naphtoquinon, reference compound] | 26.6 ± 0.5 | 0.59 | 31.9 ± 2.7 | 0.49 | 15.6 ± 0.3 | 25 ± 0.3 | 0.62 | – | – | – | –
Cc1ccc2c(n1)C(=O)C(Cl)=C(Cl)C2=O [Compound 3, 6,7-dichloro-2-methyl-5,8-quinolinedione] | 15.9 ± 0.3 | 0.63 | 23.3 ± 0.3 | 0.43 | 10 ± 1.4 | 10.5 ± 0.8 | 0.95 | – | – | – | –
CCCOC1=C(Cl)C(=O)c2ccccc2C1=O [Compound 4, 2-Chloro-3-propoxy-1,4-naphtoquinon] | 18.4 ± 1.7 | 0.80 | 1.4 ± 0.3 | 10.57 | 14.8 ± 0.9 | 16.8 ± 0.3 | 0.88 | – | – | – | –
C=CCOC1=C(Cl)C(=O)c2ccccc2C1=O [Compound 5, 2-Chloro-3-(2-propenoxy)-1,4-naphthoquinon] | 3.8 ± 0.1 | 1.00 | 6.9 ± 1.9 | 0.55 | 3.8 ± 0.8 | 4 ± 0.1 | 0.95 | – | – | – | –
C#CCOC1=C(Cl)C(=O)c2ccccc2C1=O [Compound 6, 2-Chloro-3-(2-propynoxy)-1,4-naphthoquinon] | 8.4 ± 1.2 | 0.46 | 21 ± 1.5 | 0.19 | 3.9 ± 0.5 | 3.2 ± 0.6 | 1.22 | – | – | – | –
CCCOC1=C(Cl)C(=O)c2ccc(C)nc2C1=O [Compound 10, 6-Chloro-2-methyl-7-propoxy-5,8-quinolinedione] | 19.8 ± 1.4 | 0.80 | 22.2 ± 1.4 | 0.71 | 15.8 ± 1.8 | 26.8 ± 1.9 | 0.59 | – | – | – | –
C=CCOC1=C(Cl)C(=O)c2ccc(C)nc2C1=O [Compound 11, 6-Chloro-2-methyl-7-(2-propenoxy)-5,8-quinolinedione] | 33.8 ± 1.3 | 0.59 | 24.6 ± 2.9 | 0.82 | 20.1 ± 1.2 | 168 ± 6.2 | 0.12 | – | – | – | –
C#CCOC1=C(Cl)C(=O)c2ccc(C)nc2C1=O [Compound 12, 6-Chloro-2-methyl-7-(2-propynoxy)-5,8-quinolinedione] | 19.5 ± 1 | 0.72 | 17.2 ± 2.5 | 0.81 | 14 ± 2.4 | 208 ± 4.6 | 0.07 | – | – | – | –
CCCOC1=C(OCCC)C(=O)c2ccccc2C1=O [Compound 13, 2,3-Dipropoxy-1,4-naphtoquinon] | 19.9 ± 1.4 | 0.54 | 22.6 ± 2.3 | 0.48 | 10.8 ± 0.5 | 22.6 ± 0.8 | 0.48 | – | – | – | –
C=CCOC1=C(OCC=C)C(=O)c2ccccc2C1=O [Compound 14, 2,3-di(2-Propenoxy)-1,4-naphthoquinon] | 19.6 ± 1 | 0.22 | 17.9 ± 0.8 | 0.25 | 4.4 ± 0.9 | 10.6 ± 0.6 | 0.42 | – | – | – | –
C#CCOC1=C(OCC#C)C(=O)c2ccccc2C1=O [Compound 15, 2,3-di(2-Propynoxy)-1,4-naphthoquinon] | 18.6 ± 0.7 | 0.73 | – | – | – | 21.7 ± 0.6 | 0.62 | – | – | – | –
CCCOC1=C(OCCC)C(=O)c2nc(C)ccc2C1=O [Compound 19, 2-Methyl-6,7-dipropoxy-5,8-quinolinedione] | 25.7 ± 1.4 | 0.69 | 71.3 ± 3.9 | 0.25 | 17.8 ± 1.8 | 131 ± 2.4 | 0.14 | – | – | – | –
C=CCOC1=C(OCC=C)C(=O)c2nc(C)ccc2C1=O [Compound 20, 2-Methyl-6,7-di(2-propenoxy)-5,8-quinolinedione] | 16.6 ± 3 | 0.04 | 26.8 ± 1.2 | 0.02 | 0.6 ± 0.2 | 18.9 ± 1.7 | 0.03 | – | – | – | –
C#CCOC1=C(OCC#C)C(=O)c2nc(C)ccc2C1=O [Compound 21, 2-Methyl-6,7-di(2-propynoxy)-5,8-qunolinedione] | 24.5 ± 1.1 | 0.59 | 23.2 ± 1.5 | 0.63 | 14.5 ± 2.6 | 21.1 ± 1.2 | 0.69 | – | – | – | –
OCC#C/C=C\C#CCO [Compound 22, (Z)-oct-4-ene-2,6-diyne-1,8-diol] | 250 ± 4.3 | 1.04 | – | 1.85 | 260 ± 5.6 | 159 ± 4.6 | 1.64 | Neg | – | – | –
O=C1C(Cl)=C(OCC#CC=CC#CCO)C(=O)c2ccccc21 [Compound 23, 2-Chloro-3-(8-hydroxy-4-octen-2,6-diynyloxy)-1,4-naphthoquinon] | 186 ± 5 | 0.52 | 22.5 ± 2.4 | – | 97.6 ± 4 | 145 ± 4.8 | 0.67 | – | – | – | –
O=C1C(Cl)=C(OCC#CC=CC#CCO)C(=O)c2ncccc21 [Compound 24, 6-Chloro-7-(8-hydroxy-4-octen-2,6-diynyloxy)-5,8-quinolinedione] | 2.4 ± 0.1 | – | 110 ± 8.1 | – | – | 3.1 ± 0.1 | – | – | Neg | 5 | 51
Cc1ccc2c(n1)C(=O)C(OCC#CC=CC#CCO)=C(Cl)C2=O [Compound 25, 6-Chloro-7-(8-hydroxy-4-octen-2,6-diynyloxy)-2-methyl-5,8-quinolinedione] | 169 ± 4.8 | 0.16 | 16.5 ± 1.9 | – | 27.1 ± 1.1 | 116 ± 2.9 | 0.23 | – | – | – | –
O=C1C2=C(OCC#C/C=C\C#CCO2)C(=O)c2ccccc21 [Compound 26, 8-Octen-6,10-diynyl-1,4-dioxocyclododeca[2,3-g]-1,4-naphthoquinon] | 22.8 ± 1.4 | 0.77 | 2 ± 0.2 | – | 17.5 ± 1.3 | 30.3 ± 3.1 | 0.58 | – | – | – | –
O=C1C2=C(OCC#C/C=C\C#CCO2)C(=O)c2ncccc21 [Compound 27, 8-Octen-6,10-diynyl-1,4-dioxocyclododeca[2,3-g]-5,8-quinolinedione] | 31.5 ± 2.5 | 0.41 | 25.1 ± 2.4 | – | 13 ± 3.4 | 48.4 ± 8.9 | 0.27 | – | – | – | –
Cc1ccc2c(n1)C(=O)C1=C(OCC#C/C=C\C#CCO1)C2=O [Compound 28, 8-Octen-6,10-diynyl-1,4-8-octen-6,10-diynyl-1,4-dioxocyclododeca[2,3-g]-2-methyl-5,8-quinolinedione] | 157 ± 5.7 | 0.18 | 174 ± 5.9 | – | 27.8 ± 1.2 | 155 ± 3.7 | 0.18 | – | – | – | –
